Test results: patent US8017772B2, “Substituted tetrahydropyrrolopyrazine compounds and the use thereof in the treatment and/or inhibition of pain” (Gruenenthal GmbH, priority 2006, dated 2011)

Key:
[1] = molecular target: hKCNQ2/3 (Homo sapiens, UniProt O43525+O43526); assay: Fluorescence assay using a voltage sensitive dye (BMG); assay type: cell-based; settings: agonistic activity at 10 μM, CHO-K1 cells expressing KCNQ2/3; read-out: BMG AG %@10 μm
Description: 11. Biological Data 12. Fluorescence Assay Using a Voltage Sensitive Dye
Human CHO-K1 cells expressing KCNQ2/3 channels are cultivated adherently at 37° C., 5% CO2 and 95% humidity in cell culture bottles (e.g. 80 cm^2 TC flasks, Nunc) with MEM Alpha Medium (1×, liquid, Invitrogen, #22571), 10% fetal calf serum (FCS) (Invitrogen, #10270-106, heat-inactivated) and the necessary selection antibiotics.
Before being sown out for the measurements, the cells are washed with a 1×DPBS buffer without Ca^2+/Mg^2+ (e.g. Invitrogen, #14190-094) and detached from the bottom of the culture vessel by means of Accutase (PAA Laboratories, #L11-007) (incubation with Accutase for 15 min at 37° C.). The cell count then present is determined using a CASY™ cell counter (TCC model, Schärfe System) in order subsequently to apply 20,000 cells/well/100 μl of the described nutrient medium to 96-well measuring plates of the Corning™ CellBIND™ type (Flat Clear Bottom Black Polystyrene Microplates, #3340). Incubation is then carried out for one hour at room temperature, without gassing or adjusting the humidity, followed by incubation for 24 hours at 37° C., 5% CO2 and 95% humidity.
The voltage-sensitive fluorescent dye from the Membrane Potential Assay Kit (Red™ Bulk format part R8123 for FLIPR, Molecular Devices™) is prepared by dissolving the contents of a vessel Membrane Potential Assay Kit Red Component A in 200 ml of extracellular buffer (ES buffer, 120 mM NaCl, 1 mM KCl, 10 mM HEPES, 2 mM CaCl2, 2 mM MgCl2, 10 mM glucose; pH 7.4). After removal of the nutrient medium, the cells are washed with 200 μl of ES buffer, then covered with a layer of 100 μl of the dye solution prepared above and incubated for 45 min at room temperature with the exclusion of light.
The fluorescence measurements are carried out with a BMG Labtech FLUOstar™ or BMG Labtech POLARstar™ instrument (525 nm excitation, 560 nm emission, Bottom Read mode). After incubation of the dye, […] of the test substances in the desired concentrations, or 50 μl of ES buffer for control purposes, are introduced into separate cavities of the measuring plate and incubated for 30 min at room temperature while being shielded from light. The fluorescence intensity of the dye is then measured for 5 min and the fluorescence value F1 of each well is thus determined at a given, constant time. 15 μl of a […] KCl solution ([…]) are then added to each well. The change in fluorescence is subsequently measured until all the relevant measured values have been obtained (mainly 5-30 min). At a given time after KCl application, a fluorescence value F2 is determined, in this case at the time of the fluorescence peak.
For calculation, the fluorescence intensity F2 is compared with the fluorescence intensity F1, and the agonistic activity of the target compound on the potassium channel is determined therefrom. F2 and F1 are calculated as follows:
[formula] In order to determine whether a substance has an agonistic effect,
[formula] for example, can be compared with
[formula] determined by adding to the reaction batch only the buffer solution instead of the substance to be tested, determining the value F1K of the fluorescence intensity, adding the potassium ions as described above and measuring a value F2K of the fluorescence intensity. Then F2K and F1K are calculated as follows: […]
A substance has an agonistic activity on the potassium channel when
[formula] is greater than
[formula] Independently of the comparison of
[formula] it is also possible to conclude that a target compound has agonistic activity if an increase in
[formula] is to be observed as the dosage of the target compound increases. Calculations of EC50 and IC50 values are carried out with the aid of “Prism 4” software (GraphPad Software™). The following compounds were tested by way of example: […]

[2] = tested on: mononeuropathic pain (mechanical allodynia); assay: Chung model: mononeuropathic pain after spinal nerve ligation (mechanical allodynia); assay type: in vivo, Sprague-Dawley rats; settings: Rattus norvegicus, iv; i.v. administration
Description: Chung Model: Mononeuropathic Pain after Spinal Nerve Ligation
Animals: Male Sprague-Dawley rats (140-160 g) from a commercial breeder (Janvier, Genest St. Isle, France) were kept under a 12:12 h light-dark rhythm. The animals received food and tap water ad libitum. A period of one week was observed between delivery of the animals and the operation. After the operation, the animals were tested several times over a period of 4-5 weeks, a washing-out time of at least one week being observed. Description of the model: Under pentobarbital narcosis (Narcoren®, 60 mg/kg i.p., Merial GmbH, Hallbergmoos, Germany), the left L5, L6 spinal nerves were exposed by removing a section of the paravertebral muscle and a section of the left spinous process of the L5 lumbar vertebral body. […] The pull-back threshold was measured on the ipsi- and/or contra-lateral rear paw by means of an electronic from Frey Filamentes (Somedic A B, Malmö, Sweden). […] The data were determined as % maximum possible effect (% MPE) from the preliminary tests on the individual animals (=0 MPE) and the test values of an independent sham control group (=100% MPE). […] The data were analyzed by variance analysis with repeated measurements and a post hoc analysis according to Bonferroni. […]

[3] = tested on: neuropathic pain (cold allodynia); assay: Bennett model: neuropathic pain (chronic constriction injury, cold allodynia); assay type: in vivo, mouse or rat; settings: i.v. administration, dose 10 mg/kg
Description: Bennett Model: Neuropathic Pain in the Mouse and in the Rat The study of activity in neuropathic pain was carried out in the Bennett model (chronic constriction injury; Bennett and Xie, 1988, Pain 33: 87-107). Sprague-Dawley rats weighing 140-160 g are provided, under Narcoren narcosis, with four loose ligations of the right nervus ischiaticus. NMRI mice weighing 16-18 g are provided, under Ketavet-Rompun narcosis, with three loose ligations of the right nervus ischiaticus. The animals develop hypersensitivity of the paw innervated by the damaged nerve, and after a one-week recovery phase, the hypersensitivity is quantified over a period of about four weeks by means of a 4° C. cold metal plate (cold allodynia). The animals are observed on the plate for a period of 2 min and the number of reactions of pulling away the damaged paw is measured. […] The size of the group is n=10, the significance of an anti-allodynic action (*=p<0.05) is determined by means of a variance analysis with repeated measurement and a post hoc analysis according to Bonferroni.

- activation at 10 µM [1]: 84%
SMILES: O=C(CCC(=O)N1CCn2cccc2C1c1ccccc1)NCc1cccc(C(F)(F)F)c1 (stereo not drawn) [Example 2, 4-oxo-4-(1-phenyl-3,4-dihydro-1H-pyrrolo[1,2-a]pyrazin-2-yl)-N-(3-trifluoromethyl-benzyl)-butyramide]
- ED50 [2]: 2.8 mg/kg
- % MPE in the Bennett model [3]: 40 % MPE
